Non-standard residues stand in square brackets, D forms with d. Residues, ends and D or L forms follow the SMILES beside them. Sar = CNCC(=O)O
Legend:
Type in all cases: cell-based
[1] = target: human angiotensin 2 type 1 receptor (human AT1R) (Homo sapiens, UniProt P30556); experiment: PathHunter β-arrestin-2 recruitment assay, human AT1R; conditions: PathHunter β-arrestin HEK293 cells; for EC50: read-out: human AT1R b-arrestin2 EC50
Experimental: (§1) The proximal event in β-arrestin function mediated by GPCRs is recruitment to receptors following ligand binding and receptor phosphorylation by GRK's. Thus, the measure of β-arrestin recruitment was used to determine ligand efficacy for β-arrestin function.
(§2) B-arrestin-2 recruitment to the human and rat angiotensin 2 type 1 receptor (human AT1R and rat AT1aR, respectively) was measured with the PathHunter™ β-arrestin assay (DiscoveRx Corporation, Fremont Calif.). Cells, plasmid(s), and detection reagent(s) were purchased from DiscoveRx, and assays were performed per manufacturer's instructions. Human AT1R and rat AT1aR were cloned into the pCMV-ProLink vector, verified by sequencing, and transfected into PathHunter β-arrestin HEK293 cells. Stably transfected clonal cell lines were selected with Hygromycin and G418. These clonal cell lines were used for all experiments.
(§3) For assays, 25,000 cells were seeded per well in 96-well microplates in volumes of 90 μL and allowed to grow overnight at 37° C. in 5% CO2. Peptides of the invention were dissolved in deionized water to a concentration of 1 mM. Peptides were then further diluted in assay buffer (Hank's balanced salt solution with 20 mM HEPES) to add peptide to the cells to reach final concentrations ranging from 10 μM to 1 pM. Cells were then incubated for 60 minutes at 37° C. in 5% CO2, followed by addition of 50 μL of PathHunter Detection Reagent to each well. The microplates were then incubated at room temperature for 60 minutes, and then luminescence was measured using a NOVOstar microplate reader purchased from BMG Labtech. B-arrestin-2 recruitment to receptors was measured as relative luminescence intensity expressed in arbitrary units.
Target sequence in this assay (P32121 whole entry partner, one chain of several): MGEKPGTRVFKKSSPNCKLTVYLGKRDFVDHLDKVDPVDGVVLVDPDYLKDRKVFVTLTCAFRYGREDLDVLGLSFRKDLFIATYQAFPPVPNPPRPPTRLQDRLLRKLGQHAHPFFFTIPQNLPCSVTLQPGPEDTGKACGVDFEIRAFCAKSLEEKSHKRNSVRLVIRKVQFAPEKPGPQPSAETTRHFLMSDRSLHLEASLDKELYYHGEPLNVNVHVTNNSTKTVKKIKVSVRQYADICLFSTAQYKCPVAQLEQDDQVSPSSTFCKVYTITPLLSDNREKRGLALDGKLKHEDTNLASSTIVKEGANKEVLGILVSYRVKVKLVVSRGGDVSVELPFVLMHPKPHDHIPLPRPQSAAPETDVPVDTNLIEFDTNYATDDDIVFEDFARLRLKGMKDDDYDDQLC

[2] = target: rat angiotensin 2 type 1 receptor (rat AT1aR) (Rattus norvegicus, UniProt P25095); experiment: PathHunter β-arrestin-2 recruitment assay, rat AT1aR; conditions: PathHunter β-arrestin HEK293 cells; for EC50: read-out: rat AT1aR b-arrestin2 EC50
Experimental: as §1, §2, §3
Target sequence in this assay (P32121 whole entry partner, one chain of several): as above

[3] = target: T1, human angiotensin 2 type 1 receptor (human AT1R) (Homo sapiens, UniProt P30556); experiment: IP1 accumulation assay (IP-One Tb), human AT1R; conditions: cells expressing human AT1R
T1 construct: expressed in transfected cells
T1 sequence (P30556 1-359): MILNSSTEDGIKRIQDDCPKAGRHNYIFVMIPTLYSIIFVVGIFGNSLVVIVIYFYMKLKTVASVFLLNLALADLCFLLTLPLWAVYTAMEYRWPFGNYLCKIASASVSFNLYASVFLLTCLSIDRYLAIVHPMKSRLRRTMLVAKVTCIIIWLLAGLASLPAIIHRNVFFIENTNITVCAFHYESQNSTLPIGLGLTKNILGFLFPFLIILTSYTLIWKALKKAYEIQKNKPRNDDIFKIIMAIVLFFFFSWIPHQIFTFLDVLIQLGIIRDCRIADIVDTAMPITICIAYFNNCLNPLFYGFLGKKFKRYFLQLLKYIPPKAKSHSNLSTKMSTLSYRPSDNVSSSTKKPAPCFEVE
Experimental: (§4) A secondary measure of G protein coupling efficacy was also performed. IP3 is generated by activation of phospholipase C by Gα-q. IP3 is degraded to IP1, which can be forced to accumulate in cells by blocking degradation with lithium chloride. Thus we measured accumulation of IP1 to determine ligand efficacy for G protein activation.
(§5) IP1 accumulation generated by human and rat angiotensin 2 type 1 receptor (human AT1R and rat AT1aR, respectively) was measured with IP-One Tb kits purchased from Cisbio and used per the manufacturer's instructions. Clonal stably transfected cell lines expressing human AT1TR or rat AT1aR were used for all experiments.
(§6) For assays, 4,000 cells were seeded per well in 384-well small-volume microplates in volumes of 20 uL and allowed to grow overnight at 37° C. in 5% CO2. Cell growth media was then replaced with stimulation buffer supplied by Cisbio containing 50 mM lithium chloride. Peptides TRV-120,001 through TRV-120,035 were dissolved in deionized water to a concentration of 1 mM. For agonist detection, peptides were then further diluted in stimulation buffer to add peptide to the cells to reach final concentrations ranging from 10 uM to 1 pM. […] Following addition of peptides, cells were incubated at 37° C. in 5% CO2 for 30 minutes and then lysed with detection reagents added per manufacturer's instructions.

[4] = target: T2, rat angiotensin 2 type 1 receptor (rat AT1aR) (Rattus norvegicus, UniProt P25095); experiment: IP1 accumulation assay (IP-One Tb), rat AT1aR; conditions: cells expressing rat AT1aR
T2 construct: expressed in transfected cells
T2 sequence (P25095 1-359): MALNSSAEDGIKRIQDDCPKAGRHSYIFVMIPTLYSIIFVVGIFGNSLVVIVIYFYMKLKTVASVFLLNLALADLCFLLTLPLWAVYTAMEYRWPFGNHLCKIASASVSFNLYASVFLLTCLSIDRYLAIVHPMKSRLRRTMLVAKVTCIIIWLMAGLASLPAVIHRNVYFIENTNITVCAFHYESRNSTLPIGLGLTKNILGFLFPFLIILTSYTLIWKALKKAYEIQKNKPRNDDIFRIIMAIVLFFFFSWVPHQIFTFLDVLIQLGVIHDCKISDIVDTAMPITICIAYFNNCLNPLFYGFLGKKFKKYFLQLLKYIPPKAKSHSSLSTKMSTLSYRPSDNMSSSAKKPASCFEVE
Experimental: as §4, §5, §6

Compound	human AT1R b-arrestin2 Max (%) [1]	rat AT1aR b-arrestin2 Max (%) [2]	EC50 [2]	human AT1R IP One EC50 (M) [3]	rat AT1aR IP One EC50 (M) [4]	EC50 [1]	EC50 [4]	rat AT1aR IP One Max (%) [4]
CNCC(=O)N[C@@H](CCCNC(=N)N)C(=O)N[C@H](C(=O)N[C@@H](Cc1ccc(O)cc1)C(=O)N[C@@H](CCC(=O)O)C(=O)N[C@@H](Cc1c[nH]cn1)C(=O)N1CCC[C@H]1C(N)=O)C(C)C [SEQ ID NO:40, Sar-Arg-Val-Tyr-Glu-His-Pro-NH2] (H-[Sar]RVYEHP-NH2; N-terminus assumed)	53.2%	87.9%	31 nM	inactive	Inactive			
CNCC(=O)N[C@@H](CCCNC(=N)N)C(=O)N[C@H](C(=O)N[C@@H](Cc1ccc(O)cc1)C(=O)N[C@@H](Cc1ccccc1)C(=O)N[C@@H](Cc1c[nH]cn1)C(=O)N1CCC[C@H]1C(N)=O)C(C)C [SEQ ID NO:41, Sar-Arg-Val-Tyr-Phe-His-Pro-NH2]	30.1%	53.1%		inactive	Inactive	1600 nM		
CNCC(=O)N[C@@H](CCCNC(=N)N)C(=O)N[C@H](C(=O)N[C@@H](Cc1ccc(O)cc1)C(=O)N[C@@H](Cc1c[nH]cn1)C(=O)N[C@@H](Cc1c[nH]cn1)C(=O)N1CCC[C@H]1C(N)=O)C(C)C [SEQ ID NO:42, Sar-Arg-Val-Tyr-His-His-Pro-NH2] (H-[Sar]RVYHHP-NH2; N-terminus assumed)	46.4%	74.9%	270 nM	inactive	Inactive	630 nM		
CNCC(=O)N[C@@H](CCCNC(=N)N)C(=O)N[C@H](C(=O)N[C@@H](Cc1ccc(O)cc1)C(=O)N[C@@H](CCCCN)C(=O)N[C@@H](Cc1c[nH]cn1)C(=O)N1CCC[C@H]1C(N)=O)C(C)C [SEQ ID NO:43, Sar-Arg-Val-Tyr-Lys-His-Pro-NH2] (H-[Sar]RVYKHP-NH2)	42.7%	64.8%		inactive			260 nM	17.9%
CNCC(=O)N[C@@H](CCCNC(=N)N)C(=O)N[C@H](C(=O)N[C@@H](Cc1ccc(O)cc1)C(=O)N[C@@H](CCCNC(=N)N)C(=O)N[C@@H](Cc1c[nH]cn1)C(=O)N1CCC[C@H]1C(N)=O)C(C)C [SEQ ID NO:45, Sar-Arg-Val-Tyr-Arg-His-Pro-NH2] (H-[Sar]RVYRHP-NH2; N-terminus assumed)	53.3%	91.7%	27 nM	inactive				10.2%
CC[C@H](C)[C@H](NC(=O)[C@H](Cc1ccc(O)cc1)NC(=O)[C@@H](NC(=O)[C@H](CCCNC(=N)N)NC(=O)[C@@H](C)NC)C(C)C)C(=O)N[C@@H](Cc1c[nH]cn1)C(=O)N1CCC[C@H]1C(=O)N[C@@H](C)C(=O)O [SEQ ID NO:47]	80.5%	72.2%	2100 nM		Inactive			
CC[C@H](C)[C@H](NC(=O)[C@H](Cc1ccccc1)NC(=O)[C@@H](NC(=O)[C@H](CCCNC(=N)N)NC(=O)CNC)C(C)C)C(=O)N[C@@H](Cc1c[nH]cn1)C(=O)N1CCC[C@H]1C(=O)N[C@H](C)C(=O)O [SEQ ID NO:48, Sar-Arg-Val-Phe-Ile-His-Pro-D-Ala-OH]	48.1%	42.1%		inactive			200 nM	13.9%
CC[C@H](C)[C@H](NC(=O)[C@H](Cc1ccc(O)cc1)NC(=O)[C@@H](NC(=O)[C@H](CCCCN)NC(=O)CNC)C(C)C)C(=O)N[C@@H](Cc1c[nH]cn1)C(=O)N1CCC[C@H]1C(=O)N[C@H](C)C(=O)O [SEQ ID NO:49, Sar-Lys-Val-Tyr-Ile-His-Pro-D-Ala-OH]	72.7%	52.9%	630 nM	inactive	Inactive	1000 nM		
CC[C@H](C)[C@H](NC(=O)[C@H](Cc1ccc(O)cc1)NC(=O)[C@@H](NC(=O)[C@H](CCCNC(=N)N)NC(=O)CNC)C(C)C)C(=O)N[C@@H](CCCCN)C(=O)N1CCC[C@H]1C(=O)N[C@H](C)C(=O)O [SEQ ID NO:50, Sar-Arg-Val-Tyr-Ile-Lys-Pro-D-Ala-OH] (H-[Sar]RVYIKP[dA]-OH; N-terminus assumed)	56.8%	85.6%	270 nM	inactive	Inactive	680 nM		
CC[C@H](C)[C@H](NC(=O)[C@H](Cc1ccc(O)cc1)NC(=O)[C@@H](NC(=O)[C@H](CCCNC(=N)N)NC(=O)CNC)C(C)C)C(=O)N[C@@H](Cc1c[nH]cn1)C(=O)N1CCC[C@@H]1C(N)=O [SEQ ID NO:51, Sar-Arg-Val-Tyr-Ile-His-D-Pro-NH2]	20.2%	5.8%		inactive	Inactive	330 nM		
CNCC(=O)N[C@@H](CCCNC(=N)N)C(=O)N[C@H](C(=O)N[C@@H](Cc1ccc(O)cc1)C(=O)N[C@@H](Cc1ccc(O)cc1)C(=O)N[C@@H](Cc1c[nH]cn1)C(=O)N1CCC[C@H]1C(=O)O)C(C)C [SEQ ID NO:52, Sar-Arg-Val-Tyr-Tyr-His-Pro-OH]	45.9%	83.8%		inactive		1400 nM		8.0%
CNCC(=O)N[C@@H](CCCNC(=N)N)C(=O)N[C@H](C(=O)N[C@@H](Cc1ccc(O)cc1)C(=O)N[C@H](C)C(=O)N[C@@H](Cc1c[nH]cn1)C(=O)N1CCC[C@H]1C(N)=O)C(C)C [SEQ ID NO:53, Sar-Arg-Val-Tyr-D-Ala-His-Pro-NH2]	33.6%	12.2%		inactive	Inactive	1600 nM		
CNCC(=O)N[C@@H](CCCNC(=N)N)C(=O)N[C@H](C(=O)N[C@@H](Cc1ccc(O)cc1)C(=O)N[C@H](C(=O)N[C@@H](Cc1c[nH]cn1)C(=O)N1CCC[C@H]1C(=O)O)C(C)C)C(C)C [SEQ ID NO:54, Sar-Arg-Val-Tyr-Val-His-Pro-OH]	58.6%	83.0%		inactive	Inactive			

Reference: US8486885B2, “β-arrestin effectors and compositions and methods of use thereof” (Trevena, Inc., priority 2008, dated 2013)
